# “Also recorded” adds a separate entry of the source.
# Experiments:
# [1] = system: C. albicans (clinical isolate); assay: Trial of melanocortin peptides on C. albicans viability (colony formation); format: cell-based; settings: for reduction of C. albicans CFU at higher concentrations: up to 10^-4M; for C. albicans colony forming units (CFU): peptide 10^−15 to 10^−4M, 2 hours at 37° C., compared to controls
# Protocol: S. aureus (ATCC 29213) and C. albicans (clinical isolate) were obtained from the collection of the Department of Microbiology, Ospedale Maggiore di Milano. C. albicans were maintained on Sabouraud'[…] periodically transferred to Sabouraud's agar plates and incubated for 48 hours at 28° C. To prepare stationary growth phase yeast, a colony was taken from the agar plate and transferred into 30 ml Sabouraud-dextrose broth and incubated for 72 hours at 32° C. Cells were centrifuged at 1000×g for 10 minutes and the pellet was washed twice with distilled water. Cells were counted and suspended in Hank's balanced salt solution (“HBSS”) to the desired concentration. […] Cells were then washed in cold distilled water and diluted with HBSS to a concentration of 100 organisms/ml. One ml aliquots were dispensed on blood agar plates and incubated for 48 hours at 37° C. Organism viability was estimated from the number of colonies formed. […] There were at least six replicates for each concentration of peptide. […] The reaction was stopped after 3 minutes by the addition of ice cold ethanol. cAMP was measured in duplicate using a commercial enzyme immunoassay (EIA) kit (Amersham, United Kingdom) after extraction via the liquid-phase method according to manufacturer's instructions.
# [2] = system: S. aureus (ATCC 29213); assay: Trial of melanocortin peptides on S. aureus viability (colony formation); format: cell-based; settings: peptide 10^−15 to 10^−4M, 2 hours at 37° C., compared to controls
# Protocol: S. aureus (ATCC 29213) and C. albicans (clinical isolate) were obtained from the collection of the Department of Microbiology, Ospedale Maggiore di Milano. C. albicans were maintained on Sabouraud'[…] periodically transferred to Sabouraud's agar plates and incubated for 48 hours at 28° C. To prepare stationary growth phase yeast, a colony was taken from the agar plate and transferred into 30 ml Sabouraud-dextrose broth and incubated for 72 hours at 32° C. Cells were centrifuged at 1000×g for 10 minutes and the pellet was washed twice with distilled water. Cells were counted and suspended in Hank's balanced salt solution (“HBSS”) to the desired concentration. Viability, determined by the exclusion of 0.01% methylene blue, remained >98%. […] Cells were then washed in cold distilled water and diluted with HBSS to a concentration of 100 organisms/ml. One ml aliquots were dispensed on blood agar plates and incubated for 24 hours at 37° C. Organism viability was estimated from the number of colonies formed.
# [3] = system: C. albicans killing by human neutrophils; assay: Trial of α-MSH peptides on C. albicans killing by human neutrophils; format: cell-based; settings: 2 hours at 37° C., vs medium alone
# Protocol: Venous blood (20 ml) from healthy volunteers was anticoagulated with heparin. Neutrophils were isolated using dextran sedimentation and Ficoll-Hypaque (Sigma Chemical Co., St. Louis, Mo., USA) centrifugation. Erythrocytes were lysed via hypotonic shock. Neutrophils represented at least 97% of the cell suspension. Cell viability, estimated by trypan blue exclusion, was >98%. Neutrophils were suspended to final concentration in HBSS. […] After incubation, the culture tubes were placed on ice to stop growth and extracellular organisms were washed twice with centrifugation at 1000×g at 4° C. A 2.5% sodium desoxycholate solution was added to the suspension and the tubes were shaken for 5 min. Cold distilled water was added to obtain a suspension of 10^6 cells/ml. Two 1/100 serial dilution in HBSS were made to obtain a final suspension of 100 cells/ml. Aliquots of 1 ml were dispensed on blood agar plates and incubated for 48 hours at 37° C. Colony forming units (“CFU”) were counted at the end of the incubation period. Experiments were run in triplicate and repeated using blood from 5 different donors.
# [4] = system: S. aureus; assay: Influence on urokinase-induced growth enhancement of S. aureus; format: cell-based; settings: peptide 10^−6M, urokinase 500 U, 4 hours at 37° C.; p<0.001 vs urokinase alone
# From the text: In experiments on S. aureus we determined the influence of α-MSH on urokinase-induced growth-enhancement. Hart, D. A., Loule, T., Krulikl, W., Reno, C., Staphylococcus Aureus Strains Differ in Their in Vitro Responsiveness to Human Urokinase: Evidence That Methicillin-resistant Strains Are Predominantly Nonresponsive to the Growth-enhancing Effects of Urokinase, Can. J. Microbiol. 42, 1024-31 (1966). […] Appropriate dilutions of S. aureus were dispensed on agar plates and colonies counted after 24 hours incubation at 37° C.
# [5] = system: cAMP; assay: Trial of α-MSH peptides on cAMP accumulation in C. albicans; format: cell-based; settings: 10^−6M; for cAMP content of C. albicans: 3 minutes at 37° C., permeabilized yeast; for increase in cAMP compared with forskolin: equimolar
# Protocol: The reaction was stopped after 3 minutes by the addition of ice cold ethanol. cAMP was measured in duplicate using a commercial enzyme immunoassay (EIA) kit (Amersham, United Kingdom) after extraction via the liquid-phase method according to manufacturer's instructions. The effect of forskolin (10^−6M) on C. albicans colony formation was determined using the same procedures as for α-MSH peptides.
# [6] = system: HIV-1; settings: acutely and chronically infected monocytes; cited from earlier work
# [7] = vs α-MSH; cited from earlier work
substance,measurement,setting,value
"ACTH (1-39): adrenocorticotropic hormone (1-39), melanocortin peptide (SYSMEHFRWGKPVGKKRRPVKVYPNGAEDESAEAFPLEF; Corticotropin; UniProt P01189 138-176, looked up) [reference compound]",relative potency in reducing C. albicans viability,[1]; 10^−6M,did not reduce C. albicans viability
same,reduction of C. albicans CFU at higher concentrations,[1],ineffective
ACTH (18-39): ACTH fragment (18-39) (CLIP) [reference compound],relative potency in reducing C. albicans viability,[1]; 10^−6M,did not reduce C. albicans viability
same,reduction of C. albicans CFU at higher concentrations,[1],ineffective
HFRWGKPV (Ac-HFRWGKPV-NH2) [α-MSH (6-13)],relative potency in reducing C. albicans viability,[1]; 10^−6M,most effective
KPV (Ac-Lys-Pro-Val-NH2) [α-MSH (11-13)],S. aureus colony formation (CFU),[2],significantly decreased S. aureus colony forming units; also recorded: inhibited S. aureus colony formation
same,killing of C. albicans by human neutrophils,[3],enhanced killing of C. albicans by human neutrophils
same,relative potency in reducing C. albicans viability,[1]; 10^−6M,most effective
same,C. albicans colony forming units (CFU),[1],significantly decreased C. albicans colony forming units; also recorded: greatly reduced
same,urokinase-enhanced S. aureus colony formation,[4],significantly inhibited this urokinase-enhancing effect; also recorded: significantly inhibited the enhancing effect of urokinase
same,cAMP content of C. albicans,[5],enhanced cAMP content in the yeast
same,increase in cAMP compared with forskolin,[5],same order of magnitude as that induced by equimolar forskolin
MEHFRWG (Ac-MEHFRWG-NH2) [α-MSH (4-10)],inhibition of C. albicans CFU,[1]; 10^−6M,approximately 50%
NH2-Lys-Pro-Val-AcCys-CysAc-Val-Pro-Lys-NH2 [KPV dimer],S. aureus colony formation (CFU),[2],significantly decreased S. aureus colony forming units; also recorded: inhibited S. aureus colony formation
same,effectiveness against microbes compared with α-MSH (11-13),[1]; S. aureus and C. albicans,at least as effective as α-MSH (11-13) against microbes
same,C. albicans colony forming units (CFU),[1],significantly decreased C. albicans colony forming units; also recorded: inhibited C. albicans colony formation
SYSMEHFRWGKPV [α-MSH (1-13)],S. aureus colony formation (CFU),[2],significantly decreased S. aureus colony forming units; also recorded: inhibited S. aureus colony formation
same,killing of C. albicans by human neutrophils,[3],enhanced killing of C. albicans by human neutrophils
same,C. albicans colony forming units (CFU),[1],significantly decreased C. albicans colony forming units; also recorded: greatly reduced
same,urokinase-enhanced S. aureus colony formation,[4],significantly inhibited this urokinase-enhancing effect; also recorded: significantly inhibited the enhancing effect of urokinase
same,HIV-1 replication,[6],inhibits HIV-1 replication in acutely and chronically infected monocytes
same,cAMP content of C. albicans,[5],enhanced cAMP content in the yeast
same,increase in cAMP compared with forskolin,[5],same order of magnitude as that induced by equimolar forskolin
"[Nle^4,D-Phe^7]-α-MSH",potency in reducing fever relative to the parent peptide,[7],approximately 10 times
